The source of these data is US6455550B1, “N-alkanoylphenylalanine derivatives” (Hoffmann-La Roche Inc., priority 1997, dated 2002).

For series [1], the target named is T1, VLA-4 (α4β1 integrin) binding to immobilized VCAM-1 (Homo sapiens, UniProt P05556+P13612).
T1 construct: followed by 10 μl of Ramos cell-derived VLA-4; endogenous in cells; host or cells: Ramos cells (VLA-4 preparation derived from the cells)
Briefly: VLA-4/VCAM-1 Screening Assay (solid-phase, dual antibody ELISA). The settings on record: Ramos cell-derived VLA-4, recombinant human VCAM-1 coated plates, 2 hr at 37° C. Put shortly:
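Recombinant human VCAM-1 is coated onto plates and Ramos cell-derived VLA-4 is added with compound (final DMSO 5%) in Tris buffer pH 7.4 with 1 mM MnCl2 and 1 mg/mL BSA, 2 hr at 37° C. Bound VLA-4 is detected by anti-β1 antibody, HRP anti-mouse IgG and K-Blue colorimetry. Results are % inhibition of total binding.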

For series [2], the target named is T2, cell-surface VLA-4 (α4β1 integrin) on Ramos cells binding to immobilized VCAM-1 (Homo sapiens, UniProt P05556+P13612).
T2 construct: Ramos cells bearing cell-surface VLA-4; endogenous in cells; host or cells: Ramos cells (VLA-4); VCAM-1 purified from CHO cell culture media
Briefly: Ramos (VLA-4)/VCAM-1 Cell-Based Screening Assay (cell adhesion). The note with it: Calcein-AM labeled Ramos cells, VCAM-1 coated plates, 45 min at room temperature. The text has this: Calcein-AM was purchased from Molecular Probes Inc.
VLA-4 (α4β1 integrin) antagonist activity, defined as ability to compete with cell-surface VLA-4 for binding to immobilized VCAM-1, was quantitated using a Ramos-VCAM-1 cell adhesion assay. Ramos cells bearing cell-surface VLA-4, were labeled with a fluorescent dye (Calcein-AM) and allowed to bind VCAM-1 in the presence or absence of test compounds.
Initially, this entailed coating 96 well plates (Nunc Maxisorp) with recombinant human VCAM-1 (100 ng in 100 μl PBS), sealing each plate and allowing the plates to stand at 4° C for Å18 hr. The VCAM-coated plates were subsequently washed twice with 0.05% Tween-20 in PBS, and then blocked for 1hr (room temperature) with 200 μl of Blocking Buffer (1% BSA/0.02% thimerosal) to reduce non-specific binding. Following the incubation with Blocking Buffer, plates were inverted, blotted and the remaining buffer aspirated. Each plate was then washed with 300 μl PBS, inverted and the remaining PBS aspirated.
Test compounds were dissolved in 100% DMSO and then diluted 1:25 in VCAM Cell Adhesion Assay Buffer (4 mM CaCl2, 4 mM MgCl2 in 50 mM TRIS-HCl, pH 7.5) (final DMSO=4%). […] 100 μl/well of each dilution was added to the VCAM-coated plates, followed by 100 μl of Ramos cells (200,000 cells/well in 1% BSA/PBS). […] Plates were inverted to remove non-adherent cells, blotted and 300 μl/well PBS added. Plates were again inverted, blotted and the remaining buffer gently aspirated. 100 μl Lysis Buffer (0.1% SDS in 50 mM TRIS-HCl, pH 8.5) was added to each well and agitated for 2 min on a rotary shaking platform.

The mark [3] stands for this setting: read-out: IC50 in Ramos Cell Based Assay.
[4] abbreviates: IC50 in Ramos Cell Based Assay (nM).

Each structure is given as a SMILES string. Read-outs that look alike come from different tables or passages of the source.

T2 sequence (P13612 34-1032): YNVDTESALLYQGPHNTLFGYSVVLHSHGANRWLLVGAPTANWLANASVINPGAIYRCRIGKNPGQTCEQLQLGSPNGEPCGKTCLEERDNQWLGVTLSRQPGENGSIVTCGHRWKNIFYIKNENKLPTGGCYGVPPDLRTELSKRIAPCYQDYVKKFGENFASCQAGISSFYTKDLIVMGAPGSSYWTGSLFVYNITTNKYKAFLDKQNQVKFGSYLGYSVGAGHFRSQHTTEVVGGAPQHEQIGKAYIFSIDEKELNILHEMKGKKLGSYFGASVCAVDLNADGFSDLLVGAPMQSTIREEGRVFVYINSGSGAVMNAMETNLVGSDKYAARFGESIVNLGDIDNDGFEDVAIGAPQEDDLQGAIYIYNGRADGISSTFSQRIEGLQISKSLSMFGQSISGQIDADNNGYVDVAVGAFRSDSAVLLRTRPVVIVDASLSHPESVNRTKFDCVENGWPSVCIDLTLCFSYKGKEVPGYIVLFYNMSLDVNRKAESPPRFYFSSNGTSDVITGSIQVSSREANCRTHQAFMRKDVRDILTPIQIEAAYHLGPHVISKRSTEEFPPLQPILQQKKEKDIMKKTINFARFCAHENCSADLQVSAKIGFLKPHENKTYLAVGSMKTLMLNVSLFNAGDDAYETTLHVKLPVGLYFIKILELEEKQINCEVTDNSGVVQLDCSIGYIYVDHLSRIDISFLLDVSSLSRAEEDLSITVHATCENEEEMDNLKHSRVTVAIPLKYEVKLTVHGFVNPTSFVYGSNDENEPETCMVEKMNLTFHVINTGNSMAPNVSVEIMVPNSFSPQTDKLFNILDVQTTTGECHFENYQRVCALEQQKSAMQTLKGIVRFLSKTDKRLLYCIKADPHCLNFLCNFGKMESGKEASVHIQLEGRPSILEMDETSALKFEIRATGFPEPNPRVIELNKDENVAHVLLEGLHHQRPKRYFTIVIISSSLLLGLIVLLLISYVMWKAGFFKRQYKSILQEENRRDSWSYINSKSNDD
T2 sequence (P05556 21-798): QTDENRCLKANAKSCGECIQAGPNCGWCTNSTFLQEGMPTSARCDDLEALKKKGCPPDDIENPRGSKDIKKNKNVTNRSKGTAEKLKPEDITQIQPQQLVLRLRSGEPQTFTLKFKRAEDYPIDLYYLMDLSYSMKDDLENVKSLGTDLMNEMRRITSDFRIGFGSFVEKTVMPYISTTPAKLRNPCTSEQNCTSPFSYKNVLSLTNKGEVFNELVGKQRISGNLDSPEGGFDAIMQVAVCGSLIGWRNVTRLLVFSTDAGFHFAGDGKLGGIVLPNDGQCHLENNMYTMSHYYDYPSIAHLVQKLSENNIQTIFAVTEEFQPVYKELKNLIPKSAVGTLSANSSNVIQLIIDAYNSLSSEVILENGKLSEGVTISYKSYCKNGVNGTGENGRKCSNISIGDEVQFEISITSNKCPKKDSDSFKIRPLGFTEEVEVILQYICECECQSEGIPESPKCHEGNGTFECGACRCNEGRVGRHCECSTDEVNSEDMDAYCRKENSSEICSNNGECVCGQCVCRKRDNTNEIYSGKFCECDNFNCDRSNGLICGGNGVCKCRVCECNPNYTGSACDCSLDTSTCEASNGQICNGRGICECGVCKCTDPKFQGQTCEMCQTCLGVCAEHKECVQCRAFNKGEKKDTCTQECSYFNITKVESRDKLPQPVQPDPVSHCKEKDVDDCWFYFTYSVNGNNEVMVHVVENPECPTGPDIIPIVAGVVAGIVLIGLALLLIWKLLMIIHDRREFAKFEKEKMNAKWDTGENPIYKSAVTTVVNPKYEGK
T1 sequence (P13612 34-1032): as the sequence (P13612 34-1032) above
T1 sequence (P05556 21-798): as the sequence (P05556 21-798) above

Take `COc1ccc(CC2(C(=O)N[C@@H](Cc3ccc(NC(=O)c4c(Cl)cccc4Cl)cc3)C(=O)O)CCCCC2)cc1` [Example 47, 4-[[(2,6-Dichlorophenyl)carbonyl]amino]-N-[[1-(4-methoxyphenylmethyl)cyclohexyl]carbonyl]-L-phenylalanine]: the melting point (commonly the temperature, or range, at which the solid turns liquid) fell in the range of 136 to 140 °C.

In the case of `COC(=O)N(C)CCC1(C(=O)N[C@@H](Cc2ccc(NC(=O)c3c(Cl)cccc3Cl)cc2)C(=O)O)CCCC1` [Example 202, 4-[[(2,6-Dichlorophenyl)carbonyl]amino]-N-[[1-[2-[(methoxycarbonyl)(methyl)amino]ethyl]cyclopentyl]carbonyl]-L-phenylalanine], the IC50 (commonly the concentration at which inhibition is half-maximal) is 1 nM in series [1] (read-out: IC50) and 31 nM in series [2] (setting [3]). The matching figures for `CC(C)(C)OC(=O)NCC(=O)NCCC1(C(=O)N[C@@H](Cc2ccc(NC(=O)c3c(Cl)cccc3Cl)cc2)C(=O)O)CCCC1` [Example 216, 4-[[(2,6-dichlorophenyl)carbonyl]amino]-N-[[1-[2-[[2-[[(1,1-dimethylethoxy)carbonyl]amino]-1-oxoethyl]amino]ethyl]cyclopentyl]carbonyl]-L-phenylalanine]: 2.9 nM and 356 nM.

`NCC(=O)NCCC1(C(=O)N[C@@H](Cc2ccc(NC(=O)c3c(Cl)cccc3Cl)cc2)C(=O)O)CCCC1` [Example 217, 4-[[(2,6-dichlorophenyl)carbonyl]amino]-N-[[1-[2-[(2-amino-1-oxoethyl)amino]ethyl]yclopentyl]carbonyl]-L-phenylalanine]: the half-maximal inhibitory concentration (IC50) in series [1] (read-out: IC50) is 2 nM; in series [2] (setting [3]) it was 211 nM.

In the case of `CSCCC1(C(=O)N[C@@H](Cc2ccc(NC(=O)c3c(Cl)cccc3Cl)cc2)C(=O)O)CCCC1` [Example 249], the IC50 in series [1] (IC50 nM) is 0.29 nM; in series [2] (setting [4]), 62 nM.

As to `COCCCCC1(C(=O)N[C@@H](Cc2ccc(NC(=O)c3c(Cl)cccc3Cl)cc2)C(=O)O)CCCC1` [Example 250], the IC50 is 0.32 nM in series [1] (IC50 nM) and 28 nM in series [2] (setting [3]).

Consider `NCCC1(C(=O)N[C@@H](Cc2ccc(NC(=O)c3c(Cl)cccc3Cl)cc2)C(=O)O)CCCC1` [Example 252], for which the IC50 in series [1] (IC50 nM) is 5.1 nM; in series [2] (setting [4]), 228 nM. Turning to `CC(C)(C)OC(=O)NCCC1(C(=O)N[C@@H](Cc2ccc(NC(=O)c3c(Cl)cccc3Cl)cc2)C(=O)O)CCCC1` [Example 254], the figures for the IC50 in series [1] (read-out: IC50) and in series [2] (setting [3]) were 2 nM and 360 nM, respectively. In the case of `O=C(Nc1ccc(C[C@H](NC(=O)C2(CCCCO)CCCC2)C(=O)O)cc1)c1c(Cl)cccc1Cl` [Example 255], the values for the IC50 in series [1] (IC50 nM) and in series [2] (setting [4]) were 0.5 nM and 27 nM, respectively. The matching figures for `O=C(Nc1ccc(C[C@H](NC(=O)C2(CCN3CCOCC3)CCCC2)C(=O)O)cc1)c1c(Cl)cccc1Cl` [Example 256]: 2.4 nM and 151 nM. On the same counts, the results for `COc1ccc(C(=O)NCCC2(C(=O)N[C@@H](Cc3ccc(NC(=O)c4c(Cl)cccc4Cl)cc3)C(=O)O)CCCC2)cc1` [Example 257] are 40 nM and 635 nM. Regarding `O=C(NCCC1(C(=O)N[C@@H](Cc2ccc(NC(=O)c3c(Cl)cccc3Cl)cc2)C(=O)O)CCCC1)c1cccc(C(F)(F)F)c1` [Example 258], the IC50 in series [1] (IC50 nM) is 14 nM; in series [2] (setting [4]) it was 1030 nM.

With `CC(=O)NCCCCC1(C(=O)N[C@@H](Cc2ccc(NC(=O)c3c(Cl)cccc3Cl)cc2)C(=O)O)CCCC1` [Example 259], the IC50 in series [1] (IC50 nM) was 3.6 nM; in series [2] (setting [4]), 129 nM.

Turning to `CCCCC1(C(=O)N[C@@H](Cc2ccc(NC(=O)c3c(Cl)cccc3Cl)cc2)C(=O)O)CCCC1` [Example 270], the IC50 in series [1] (IC50 nM) was 1.1 nM; in series [2] (setting [4]), 150 nM. Take `C=CCCC1(C(=O)N[C@@H](Cc2ccc(NC(=O)c3c(Cl)cccc3Cl)cc2)C(=O)O)CCCC1` [Example 271]: the figures for the IC50 in series [1] (IC50 nM) and in series [2] (setting [3]) were 0.55 nM and 67 nM, respectively.

Regarding `N#CCC1(C(=O)N[C@@H](Cc2ccc(NC(=O)c3c(Cl)cccc3Cl)cc2)C(=O)O)CCCC1` [Example 272], the IC50 in series [1] (read-out: IC50) is 1 nM; in series [2] (setting [4]) it was 96 nM. As to `C[S+]([O-])CCC1(C(=O)N[C@@H](Cc2ccc(NC(=O)c3c(Cl)cccc3Cl)cc2)C(=O)O)CCCC1` (stereo partly shown) [Example 357], the melting point was in the range of 255 to 258 °C. In series [2] (setting [4]), the IC50 was 25 nM.

As to `CS(=O)(=O)CCC1(C(=O)N[C@@H](Cc2ccc(NC(=O)c3c(Cl)cccc3Cl)cc2)C(=O)O)CCCC1` [Example 358], the melting point fell in the range of 184 to 187 °C. Besides, the IC50 in series [2] (setting [4]) was 75 nM.

Regarding `COCCC1(C(=O)N[C@@H](Cc2ccc(NC(=O)c3cc(C#N)ccc3Cl)cc2)C(=O)OC)CCCC1` [Example 362, 4-[(2-Chloro-5-cyanophenylcarbonyl)amino]-N-[[1-(2-methoxyethyl)cyclopentyl]carbonyl]-L-phenylalanine Methyl Ester], the melting point lay in the range of 172 to 175 °C.

In turn, `COCCC1(C(=O)N[C@@H](Cc2ccc(NC(=O)c3cc(C#N)ccc3Cl)cc2)C(=O)O)CCCC1` [Example 363, 4-[(2-Chloro-5-cyanophenylcarbonyl)amino]-N-[[1-(2-methoxyethyl)cyclopentyl]carbonyl]-L-phenylalanine] gave a melting point of 169 to 172 °C. In series [1] (read-out: IC50), the IC50 was 0.64 nM. Moreover, in series [2] (setting [3]), the IC50 was 11 nM. In the case of `COCCC1(C(=O)N[C@@H](Cc2ccc(N3C(=O)c4ccc(C#N)cc4C3=O)cc2)C(=O)O)CCCC1` [Example 371, 4-(5-Cyano-1,3-dioxo-2H-isoindol-2-yl)-N-[[1-(2-methoxyethyl)cyclopentyl]carbonyl]-L-phenylalanine], the melting point fell in the range of 143 to 146 °C. The IC50 in series [1] (read-out: IC50) came to 1.65 nM. `COCCC1(C(=O)N[C@@H](Cc2ccc(NC(=O)c3c(Cl)cccc3Cl)cc2)C(=O)OC)CCCC1` [Example 397, 4-[[(2,6-Dichlorophenyl)carbonyl]amino]-N-[[1-(2-methoxyethyl)cyclopentyl]carbonyl]-L-phenylalanine Methyl Ester] yielded a melting point of 85 to 87 °C. Same read-out and setting: the value for `COCCC1(C(=O)N[C@@H](Cc2ccc(NC(=O)c3c(Cl)cccc3Cl)cc2)C(=O)O)CCCC1` [Example 398, 4-[[(2,6-Dichlorophenyl)carbonyl]amino]-N-[[1-(2-methoxyethyl)cyclopentyl]carbonyl]-L-phenylalanine] was 136 to 140 °C.
